# Laboratory results published in patent publication US20250340557A1, “PYRIMIDINE DERIVATIVE” (ASKA PHARMACEUTICAL CO., LTD., priority 2022, published 2025).
# Target: T1, human mPGES-1 (Homo sapiens, UniProt O14684)
# T1 construct: made in house; host or cells: COS-1 cells (transient transfection; microsomal fraction used as enzyme)
# T1 sequence (O14684 1-152): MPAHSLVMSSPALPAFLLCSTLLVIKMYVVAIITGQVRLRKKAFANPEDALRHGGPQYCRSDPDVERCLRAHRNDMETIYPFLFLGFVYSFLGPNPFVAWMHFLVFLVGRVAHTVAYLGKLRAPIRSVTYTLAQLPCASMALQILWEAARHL
# Assay: Test for mPGES-1 inhibitory activity (microsomal enzyme, PGE2 EIA)
# Assay type: biochemical
# Conditions: microsomes of COS-1 cells transfected with human mPGES-1 cDNA; PGH2 1 μM; 4° C., 4 minutes; PGE2 by EIA; read-out: h mPGES1 IC50
# How it was run: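 Enzyme source was microsomes from COS-1 cells transiently expressing human mPGES-1, in sodium phosphate pH 7.2 with 2.5 mM GSH, 1 mM EDTA and 2% DMSO final. After a 15 min preincubation with compound at 4 °C, 1 μM PGH2 (final) reacted for 4 min at 4 °C.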
row,IC50 [nM],SMILES
1,9,"CCc1cc(=O)[nH]c(-c2c(C(F)(F)F)ccc(CNC(=O)[C@H]3C[C@H](OCc4ccc(F)cc4Cl)C3)c2F)n1 [Example 207, trans-3-[(2-chloro-4-fluorobenzyl)oxy]-N-[3-(4-ethyl-6-oxo-1,6-dihydropyrimidin-2-yl)-2-fluoro-4-(trifluoromethyl)benzyl]cyclobutane-1-carboxamide]"
2,8.8,"CCc1cc(=O)[nH]c(-c2c(C(F)(F)F)ccc(CNC(=O)[C@H]3C[C@H](OCc4cccc(Cl)c4F)C3)c2F)n1 [Example 208, trans-3-[(3-chloro-2-fluorobenzyl)oxy]-N-[3-(4-ethyl-6-oxo-1,6-dihydropyrimidin-2-yl)-2-fluoro-4-(trifluoromethyl)benzyl]cyclobutane-1-carboxamide]"
3,8.8,"CCc1cc(=O)[nH]c(-c2c(C(F)(F)F)ccc(CNC(=O)[C@H]3C[C@H](OCc4cc(Cl)ccc4F)C3)c2F)n1 [Example 209, trans-3-[(5-chloro-2-fluorobenzyl)oxy]-N-[3-(4-ethyl-6-oxo-1,6-dihydropyrimidin-2-yl)-2-fluoro-4-(trifluoromethyl)benzyl]cyclobutane-1-carboxamide]"
4,7.9,"CCc1cc(=O)[nH]c(-c2c(C(F)(F)F)ccc(CNC(=O)[C@H]3C[C@H](OCc4ccc(F)c(Cl)c4)C3)c2F)n1 [Example 210, trans-3-[(3-chloro-4-fluorobenzyl)oxy]-N-[3-(4-ethyl-6-oxo-1,6-dihydropyrimidin-2-yl)-2-fluoro-4-(trifluoromethyl)benzyl]cyclobutane-1-carboxamide]"
5,9.3,"CCc1cc(=O)[nH]c(-c2c(C(F)(F)F)ccc(CNC(=O)[C@H]3C[C@H](OCc4cc(F)cc(Cl)c4)C3)c2F)n1 [Example 211, trans-3-[(3-chloro-5-fluorobenzyl)oxy]-N-[3-(4-ethyl-6-oxo-1,6-dihydropyrimidin-2-yl)-2-fluoro-4-(trifluoromethyl)benzyl]cyclobutane-1-carboxamide]"
6,< 1,"Cc1nc(-c2c(C(F)(F)F)ccc(CNC(=O)[C@H]3C[C@H](OCc4ccccc4Cl)C3)c2F)[nH]c(=O)c1F [Example 212, trans-3-[(2-chlorobenzyl)oxy]-N-[2-fluoro-3-(5-fluoro-4-methyl-6-oxo-1,6-dihydropyrimidin-2-yl)-4-(trifluoromethyl)benzyl]cyclobutane-1-carboxamide]"
7,11,"Cc1nc(-c2c(C(F)(F)F)ccc(CNC(=O)[C@H]3C[C@H](OCc4cccc(Cl)c4)C3)c2F)[nH]c(=O)c1F [Example 213, trans-3-[(3-chlorobenzyl)oxy]-N-[2-fluoro-3-(5-fluoro-4-methyl-6-oxo-1,6-dihydropyrimidin-2-yl)-4-(trifluoromethyl)benzyl]cyclobutane-1-carboxamide]"
8,8.6,"Cc1nc(-c2c(C(F)(F)F)ccc(CNC(=O)[C@H]3C[C@H](OCc4ccc(Cl)cc4)C3)c2F)[nH]c(=O)c1F [Example 214, trans-3-[(4-chlorobenzyl)oxy]-N-[2-fluoro-3-(5-fluoro-4-methyl-6-oxo-1,6-dihydropyrimidin-2-yl)-4-(trifluoromethyl)benzyl]cyclobutane-1-carboxamide]"
9,6.9,"Cc1nc(-c2c(C(F)(F)F)ccc(CNC(=O)[C@H]3C[C@H](OCc4ccccc4C(F)(F)F)C3)c2F)[nH]c(=O)c1F [Example 215, trans-N-[2-fluoro-3-(5-fluoro-4-methyl-6-oxo-1,6-dihydropyrimidin-2-yl)-4-(trifluoromethyl)benzyl]-3-{[2-(trifluoromethyl)benzyl]oxy}cyclobutane-1-carboxamide]"
10,16,"Cc1nc(-c2c(C(F)(F)F)ccc(CNC(=O)[C@H]3C[C@H](OCc4cccc(C(F)(F)F)c4)C3)c2F)[nH]c(=O)c1F [Example 216, trans-N-[2-fluoro-3-(5-fluoro-4-methyl-6-oxo-1,6-dihydropyrimidin-2-yl)-4-(trifluoromethyl)benzyl]-3-{[3-(trifluoromethyl)benzyl]oxy}cyclobutane-1-carboxamide]"
11,16,"Cc1nc(-c2c(C(F)(F)F)ccc(CNC(=O)[C@H]3C[C@H](OCc4ccc(C(F)(F)F)cc4)C3)c2F)[nH]c(=O)c1F [Example 217, trans-N-[2-fluoro-3-(5-fluoro-4-methyl-6-oxo-1,6-dihydropyrimidin-2-yl)-4-(trifluoromethyl)benzyl]-3-{[4-(trifluoromethyl)benzyl]oxy}cyclobutane-1-carboxamide]"
12,13,"Cc1nc(-c2c(C(F)(F)F)ccc(CNC(=O)[C@H]3C[C@H](OCc4ccc(F)cc4F)C3)c2F)[nH]c(=O)c1F [Example 218, trans-3-[(2,4-difluorobenzyl)oxy]-N-[2-fluoro-3-(5-fluoro-4-methyl-6-oxo-1,6-dihydropyrimidin-2-yl)-4-(trifluoromethyl)benzyl]cyclobutane-1-carboxamide]"
13,15,"Cc1nc(-c2c(C(F)(F)F)ccc(CNC(=O)[C@H]3C[C@H](OCc4ccc(Cl)cc4F)C3)c2F)[nH]c(=O)c1F [Example 219, trans-3-[(4-chloro-2-fluorobenzyl)oxy]-N-[2-fluoro-3-(5-fluoro-4-methyl-6-oxo-1,6-dihydropyrimidin-2-yl)-4-(trifluoromethyl)benzyl]cyclobutane-1-carboxamide]"
14,15,"Cc1nc(-c2c(C(F)(F)F)ccc(CNC(=O)[C@H]3C[C@H](OCc4ccc(F)c(F)c4)C3)c2F)[nH]c(=O)c1F [Example 220, trans-3-[(3,4-difluorobenzyl)oxy]-N-[2-fluoro-3-(5-fluoro-4-methyl-6-oxo-1,6-dihydropyrimidin-2-yl)-4-(trifluoromethyl)benzyl]cyclobutane-1-carboxamide]"
15,14,"Cc1nc(-c2c(C(F)(F)F)ccc(CNC(=O)[C@H]3C[C@H](OCc4cc(F)cc(F)c4)C3)c2F)[nH]c(=O)c1F [Example 221, trans-3-[(3,5-difluorobenzyl)oxy]-N-[2-fluoro-3-(5-fluoro-4-methyl-6-oxo-1,6-dihydropyrimidin-2-yl)-4-(trifluoromethyl)benzyl]cyclobutane-1-carboxamide]"
16,15,"Cc1nc(-c2c(C(F)(F)F)ccc(CNC(=O)[C@H]3C[C@H](OCc4cccc(F)c4)C3)c2F)[nH]c(=O)c1F [Example 222, trans-N-[2-fluoro-3-(5-fluoro-4-methyl-6-oxo-1,6-dihydropyrimidin-2-yl)-4-(trifluoromethyl)benzyl]-3-[(3-fluorobenzyl)oxy]cyclobutane-1-carboxamide]"
17,< 1,"Cc1nc(-c2c(C(F)(F)F)ccc(CNC(=O)[C@H]3C[C@H](OCc4cccc(F)c4F)C3)c2F)[nH]c(=O)c1F [Example 223, trans-3-[(2,3-difluorobenzyl)oxy]-N-[2-fluoro-3-(5-fluoro-4-methyl-6-oxo-1,6-dihydropyrimidin-2-yl)-4-(trifluoromethyl)benzyl]cyclobutane-1-carboxamide]"
18,< 1,"Cc1nc(-c2c(C(F)(F)F)ccc(CNC(=O)[C@H]3C[C@H](OCc4ccc(F)cc4Cl)C3)c2F)[nH]c(=O)c1F [Example 224, trans-3-[(2-chloro-4-fluorobenzyl)oxy]-N-[2-fluoro-3-(5-fluoro-4-methyl-6-oxo-1,6-dihydropyrimidin-2-yl)-4-(trifluoromethyl)benzyl]cyclobutane-1-carboxamide]"
19,< 1,"Cc1nc(-c2c(C(F)(F)F)ccc(CNC(=O)[C@H]3C[C@H](OCc4cccc(Cl)c4F)C3)c2F)[nH]c(=O)c1F [Example 225, trans-3-[(3-chloro-2-fluorobenzyl)oxy]-N-[2-fluoro-3-(5-fluoro-4-methyl-6-oxo-1,6-dihydropyrimidin-2-yl)-4-(trifluoromethyl)benzyl]cyclobutane-1-carboxamide]"
20,< 1,"Cc1nc(-c2c(C(F)(F)F)ccc(CNC(=O)[C@H]3C[C@H](OCc4cc(Cl)ccc4F)C3)c2F)[nH]c(=O)c1F [Example 226, trans-3-[(5-chloro-2-fluorobenzyl)oxy]-N-[2-fluoro-3-(5-fluoro-4-methyl-6-oxo-1,6-dihydropyrimidin-2-yl)-4-(trifluoromethyl)benzyl]cyclobutane-1-carboxamide]"
21,< 1,"Cc1nc(-c2c(C(F)(F)F)ccc(CNC(=O)[C@H]3C[C@H](OCc4ccc(F)c(Cl)c4)C3)c2F)[nH]c(=O)c1F [Example 227, trans-3-[(3-chloro-4-fluorobenzyl)oxy]-N-[2-fluoro-3-(5-fluoro-4-methyl-6-oxo-1,6-dihydropyrimidin-2-yl)-4-(trifluoromethyl)benzyl]cyclobutane-1-carboxamide]"
22,< 1,"Cc1nc(-c2c(C(F)(F)F)ccc(CNC(=O)[C@H]3C[C@H](OCc4cc(F)cc(Cl)c4)C3)c2F)[nH]c(=O)c1F [Example 228, trans-3-[(3-chloro-5-fluorobenzyl)oxy]-N-[2-fluoro-3-(5-fluoro-4-methyl-6-oxo-1,6-dihydropyrimidin-2-yl)-4-(trifluoromethyl)benzyl]cyclobutane-1-carboxamide]"
23,< 1,"CCc1nc(-c2c(C(F)(F)F)ccc(CNC(=O)[C@H]3C[C@H](OCc4ccccc4Cl)C3)c2F)[nH]c(=O)c1F [Example 229, trans-3-[(2-chlorobenzyl)oxy]-N-[3-(4-ethyl-5-fluoro-6-oxo-1,6-dihydropyrimidin-2-yl)-2-fluoro-4-(trifluoromethyl)benzyl]cyclobutane-1-carboxamide]"
24,< 1,"CCc1nc(-c2c(C(F)(F)F)ccc(CNC(=O)[C@H]3C[C@H](OCc4cccc(Cl)c4)C3)c2F)[nH]c(=O)c1F [Example 230, trans-3-[(3-chlorobenzyl)oxy]-N-[3-(4-ethyl-5-fluoro-6-oxo-1,6-dihydropyrimidin-2-yl)-2-fluoro-4-(trifluoromethyl)benzyl]cyclobutane-1-carboxamide]"
